Columns and labels:
[1] = UV spectra of the chromophores, maximum absorption wavelength; assay type: physicochemical; details: UV spectrum of chromophore 78, carboxylate function protected in ester form
Procedure: Several compounds according to the invention were prepared and their photophysical properties, in particular the wavelengths corresponding to their maximum absorption peaks (λmax), were determined. The structures of these compounds and the results obtained are described in table 2.
The chromophores (similar to compound 78, carboxylate function protected in ester form) were synthesized according to the protocol described in scheme 13, using one of the two approaches “A” or “B” as described in this scheme (including that for the chromophores comprising naphthyl, thiolanyl, imidazolyl and anthracenyl rings or heterocycles). For each chromophore, the UV spectra were recorded and the maximum absorption wavelengths (λmax) were determined and reported in table 2.

[2] = Photophysical properties of symmetrical europium TACN complexes 81; assay type: physicochemical; details: symmetrical europium TACN complex 81 made of three identical chromophores
Procedure: For certain chromophores, europium complexes according to the invention in which the three chromophores are identical (symmetrical complexes) were prepared using the protocol described in scheme 14, with a TACN macrocycle (the synthetic yields for the intermediate compounds 79, 80 and 81 of scheme 14 were reported in table 2). The photophysical properties of these europium complexes were determined and also reported in this table.

## COC(=O)c1cc(C#Cc2cc(OC)c(C)c(OC)c2)cc(CO)n1
[1]
  Chromophore 78 λmax (nm): 319 nm
[2]
  Complex 81 Quantic yield (%): 11%
  Complex 81 λmax (nm): 336 nm

## COC(=O)c1cc(C#Cc2ccc(NC(=O)OC(C)(C)C)cc2)cc(CO)n1
[1]
  Chromophore 78 λmax (nm): 326 nm

## COC(=O)c1cc(C#Cc2ccc(Oc3ccccc3)cc2)cc(CO)n1
[1]
  Chromophore 78 λmax (nm): 315 nm

## COC(=O)c1cc(C#Cc2cccc3ccccc23)cc(CO)n1
[1]
  Chromophore 78 λmax (nm): 329 nm

## COC(=O)c1cc(C#Cc2ccc3cc(OC)ccc3c2)cc(CO)n1
[1]
  Chromophore 78 λmax (nm): 335 nm

## COC(=O)c1cc(C#Cc2c3ccccc3cc3ccccc23)cc(CO)n1
[1]
  Chromophore 78 λmax (nm): 326 nm

## COC(=O)c1cc(C#Cc2ccc(NC(=O)c3ccccc3)cc2)cc(CO)n1
[1]
  Chromophore 78 λmax (nm): 323 nm

## COC(=O)c1cc(C#Cc2ccc(OC)cc2C)cc(CO)n1
[1]
  Chromophore 78 λmax (nm): 326 nm
[2]
  Complex 81 Quantic yield (%): 76%
  Complex 81 λmax (nm): 343 nm

## COC(=O)c1cc(C#Cc2ccc(OCC(=O)OC(C)(C)C)cc2)cc(CO)n1
[1]
  Chromophore 78 λmax (nm): 318 nm

## COC(=O)c1cc(C#Cc2ccccc2)cc(CO)n1 [reference compound]
[1]
  Chromophore 78 λmax (nm): 291 nm

## COC(=O)c1cc(C#Cc2ccc(SC)cc2)cc(CO)n1
[1]
  Chromophore 78 λmax (nm): 332 nm

## COC(=O)c1cc(C#Cc2ccc(OC)cc2)cc(CO)n1
[1]
  Chromophore 78 λmax (nm): 320 nm
[2]
  Complex 81 Quantic yield (%): 52%
  Complex 81 λmax (nm): 333 nm

## COC(=O)c1cc(C#Cc2ccc(OC)cc2OC)cc(CO)n1
[1]
  Chromophore 78 λmax (nm): 319 nm

## COC(=O)c1cc(C#Cc2ccc(O)cc2)cc(CO)n1
[1]
  Chromophore 78 λmax (nm): 324 nm

## COC(=O)c1cc(C#Cc2ccccc2OC)cc(CO)n1
[1]
  Chromophore 78 λmax (nm): 323 nm
[2]
  Complex 81 Quantic yield (%): 46%
  Complex 81 λmax (nm): 336 nm

## COC(=O)c1cc(C#Cc2cncn2C)cc(CO)n1
[1]
  Chromophore 78 λmax (nm): 315 nm
[2]
  Complex 81 Quantic yield (%): 54%
  Complex 81 λmax (nm): 333 nm

## COC(=O)c1cc(C#Cc2ccc(NC(C)=O)cc2C)cc(CO)n1
[1]
  Chromophore 78 λmax (nm): 322 nm

## COC(=O)c1cc(C#Cc2ccsc2)cc(CO)n1
[1]
  Chromophore 78 λmax (nm): 326 nm
[2]
  Complex 81 Quantic yield (%): 52%
  Complex 81 λmax (nm): 323 nm

## COC(=O)c1cc(C#Cc2ccc(-c3ccccc3)cc2)cc(CO)n1
[1]
  Chromophore 78 λmax (nm): 318 nm

## COC(=O)c1cc(C#Cc2ccc(NC(=O)c3cc(OC)c(OC)c(OC)c3)cc2)cc(CO)n1
[1]
  Chromophore 78 λmax (nm): 324 nm

— patent US9296762B2, “Complexing agents and corresponding lanthanide complexes” (CISBIO BIOASSAYS, priority 2011, dated 2016)
